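48-hour exposure; five concentrations; linearly interpolated endpoints. Abbreviation: GI50, concentration required for 50% inhibition of growth. TGI marks complete inhibition of growth.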
Experiments:
Assay in all cases: DTP human tumour cell line panel, 48 h
HCT-15 colon = system: HCT-15 colon
SK-OV-3 ovarian = system: SK-OV-3 ovarian
RXF 393 renal = system: RXF 393 renal
HCT-116 colon = system: HCT-116 colon
SF-295 CNS = system: SF-295 CNS
TK-10 renal = system: TK-10 renal
SW-620 colon = system: SW-620 colon
NCI-H460 lung = system: NCI-H460 lung
HOP-62 NSCLC = system: HOP-62 NSCLC
NCI-H522 lung = system: NCI-H522 lung
M14 melanoma = system: M14 melanoma
786-0 renal = system: 786-0 renal
A549 NSCLC = system: A549 NSCLC
SK-MEL-28 melanoma = system: SK-MEL-28 melanoma
UO-31 renal = system: UO-31 renal
OVCAR-8 ovarian = system: OVCAR-8 ovarian
HL-60(TB) leukemia = system: HL-60(TB) leukemia
UACC-257 melanoma = system: UACC-257 melanoma
SK-MEL-2 melanoma = system: SK-MEL-2 melanoma
MOLT-4 leukemia = system: MOLT-4 leukemia
UACC-62 melanoma = system: UACC-62 melanoma
U251 CNS = system: U251 CNS
OVCAR-5 ovarian = system: OVCAR-5 ovarian
NCI-H226 lung = system: NCI-H226 lung
SNB-19 CNS = system: SNB-19 CNS
SNB-75 CNS = system: SNB-75 CNS
OVCAR-3 ovarian = system: OVCAR-3 ovarian
SF-268 CNS = system: SF-268 CNS
T-47D breast = system: T-47D breast
HS 578T breast = system: HS 578T breast
NCI-H23 lung = system: NCI-H23 lung
SK-MEL-5 melanoma = system: SK-MEL-5 melanoma
PC-3 prostate = system: PC-3 prostate
EKVX NSCLC = system: EKVX NSCLC
MDA-MB-435 = system: MDA-MB-435
ACHN renal = system: ACHN renal
OVCAR-4 ovarian = system: OVCAR-4 ovarian
RPMI-8226 leukemia = system: RPMI-8226 leukemia
COLO 205 colon = system: COLO 205 colon
MCF7 breast = system: MCF7 breast
A498 renal = system: A498 renal
HOP-92 NSCLC = system: HOP-92 NSCLC
MDA-MB-231 breast = system: MDA-MB-231 breast
SR leukemia = system: SR leukemia
BT-549 breast = system: BT-549 breast
IGROV1 ovarian = system: IGROV1 ovarian
SN12C renal = system: SN12C renal
MALME-3M melanoma = system: MALME-3M melanoma
NCI/ADR-RES ovarian = system: NCI/ADR-RES ovarian
LOX IMVI melanoma = system: LOX IMVI melanoma
K-562 leukemia = system: K-562 leukemia
CCRF-CEM leukemia = system: CCRF-CEM leukemia
DU-145 prostate = system: DU-145 prostate
HT29 colon = system: HT29 colon
KM12 colon = system: KM12 colon
CAKI-1 renal = system: CAKI-1 renal
SF-539 CNS = system: SF-539 CNS
HCC-2998 colon = system: HCC-2998 colon

Structure (SMILES): COc1ccc(-c2nn(C(=O)c3cc(OC)c(OC)c(OC)c3)c3cc(N)ccc23)cc1
- GI50 (HCT-15 colon): < 10 nM
- TGI (HCT-15 colon): 7210 nM
- GI50 (SK-OV-3 ovarian): 31.6 nM
- TGI (SK-OV-3 ovarian): 7280 nM
- GI50 (RXF 393 renal): < 10 nM
- TGI (RXF 393 renal): 3980 nM
- GI50 (HCT-116 colon): < 10 nM
- TGI (HCT-116 colon): 1450 nM
- GI50 (SF-295 CNS): < 10 nM
- TGI (SF-295 CNS): 1750 nM
- GI50 (TK-10 renal): 6090 nM
- TGI (TK-10 renal): 27400 nM
- GI50 (SW-620 colon): < 10 nM
- TGI (SW-620 colon): 23400 nM
- GI50 (NCI-H460 lung): < 11.2 nM
- TGI (NCI-H460 lung): 1740 nM
- GI50 (HOP-62 NSCLC): < 15.3 nM
- TGI (HOP-62 NSCLC): 6330 nM
- GI50 (NCI-H522 lung): < 10 nM
- TGI (NCI-H522 lung): 1120 nM
- GI50 (M14 melanoma): < 11.8 nM
- TGI (M14 melanoma): 19500 nM
- GI50 (786-0 renal): < 19.1 nM
- TGI (786-0 renal): 3630 nM
- GI50 (A549 NSCLC): < 14.6 nM
- TGI (A549 NSCLC): 3960 nM
- GI50 (SK-MEL-28 melanoma): 1760 nM
- TGI (SK-MEL-28 melanoma): 24300 nM
- GI50 (UO-31 renal): < 19.6 nM
- TGI (UO-31 renal): 5050 nM
- GI50 (OVCAR-8 ovarian): < 15.6 nM
- TGI (OVCAR-8 ovarian): 7280 nM
- GI50 (HL-60(TB) leukemia): < 12.1 nM
- TGI (HL-60(TB) leukemia): < 22 nM
- GI50 (UACC-257 melanoma): 5540 nM
- TGI (UACC-257 melanoma): 39300 nM
- GI50 (SK-MEL-2 melanoma): 2550 nM
- TGI (SK-MEL-2 melanoma): 27600 nM
- GI50 (MOLT-4 leukemia): 38.2 nM
- TGI (MOLT-4 leukemia): 23700 nM
- GI50 (UACC-62 melanoma): < 10 nM
- TGI (UACC-62 melanoma): 15300 nM
- GI50 (U251 CNS): < 10 nM
- TGI (U251 CNS): 1870 nM
- GI50 (OVCAR-5 ovarian): 1540 nM
- TGI (OVCAR-5 ovarian): 27300 nM
- GI50 (NCI-H226 lung): 150 nM
- TGI (NCI-H226 lung): 6710 nM
- GI50 (SNB-19 CNS): < 17.1 nM
- TGI (SNB-19 CNS): > 100000 nM
- GI50 (SNB-75 CNS): < 12.2 nM
- TGI (SNB-75 CNS): 7760 nM
- GI50 (OVCAR-3 ovarian): < 10 nM
- GI50 (SF-268 CNS): < 14.8 nM
- TGI (SF-268 CNS): 4430 nM
- GI50 (T-47D breast): 2170 nM
- TGI (T-47D breast): 7580 nM
- GI50 (HS 578T breast): < 17.9 nM
- TGI (HS 578T breast): 39000 nM
- GI50 (NCI-H23 lung): 29.2 nM
- TGI (NCI-H23 lung): 15700 nM
- GI50 (SK-MEL-5 melanoma): < 14.5 nM
- TGI (SK-MEL-5 melanoma): 45.3 nM
- GI50 (PC-3 prostate): < 24.1 nM
- TGI (PC-3 prostate): > 30300 nM
- GI50 (EKVX NSCLC): < 18.7 nM
- TGI (EKVX NSCLC): 51300 nM
- GI50 (MDA-MB-435): < 10 nM
- GI50 (ACHN renal): < 15.1 nM
- TGI (ACHN renal): 2670 nM
- GI50 (OVCAR-4 ovarian): < 19.5 nM
- TGI (OVCAR-4 ovarian): 12900 nM
- GI50 (RPMI-8226 leukemia): < 18 nM
- TGI (RPMI-8226 leukemia): 1840 nM
- GI50 (COLO 205 colon): 21.7 nM
- TGI (COLO 205 colon): 48.9 nM
- GI50 (MCF7 breast): 22.6 nM
- TGI (MCF7 breast): 2190 nM
- GI50 (A498 renal): < 10 nM
- TGI (A498 renal): < 17.1 nM
- GI50 (HOP-92 NSCLC): 1860 nM
- TGI (HOP-92 NSCLC): 25800 nM
- GI50 (MDA-MB-231 breast): 13.3 nM
- TGI (MDA-MB-231 breast): 12900 nM
- GI50 (SR leukemia): < 10 nM
- GI50 (BT-549 breast): < 17.5 nM
- TGI (BT-549 breast): 9560 nM
- GI50 (IGROV1 ovarian): 20.7 nM
- TGI (IGROV1 ovarian): 15900 nM
- GI50 (SN12C renal): < 16.2 nM
- TGI (SN12C renal): 10800 nM
- GI50 (MALME-3M melanoma): 2030 nM
- TGI (MALME-3M melanoma): 14800 nM
- GI50 (NCI/ADR-RES ovarian): < 10 nM
- TGI (NCI/ADR-RES ovarian): 2280 nM
- GI50 (LOX IMVI melanoma): < 10 nM
- TGI (LOX IMVI melanoma): 5540 nM
- GI50 (K-562 leukemia): < 10 nM
- TGI (K-562 leukemia): 10500 nM
- GI50 (CCRF-CEM leukemia): 24.9 nM
- TGI (CCRF-CEM leukemia): 14300 nM
- GI50 (DU-145 prostate): < 13 nM
- TGI (DU-145 prostate): 345 nM
- GI50 (HT29 colon): < 14.2 nM
- TGI (HT29 colon): 1130 nM
- GI50 (KM12 colon): < 10 nM
- TGI (KM12 colon): 1830 nM
- GI50 (CAKI-1 renal): 14.5 nM
- TGI (CAKI-1 renal): 8390 nM
- GI50 (SF-539 CNS): < 10 nM
- TGI (SF-539 CNS): 1240 nM
- GI50 (HCC-2998 colon): 34.9 nM
- TGI (HCC-2998 colon): 3790 nM
